For assay [1], the system named is ketamine-induced working memory deficits. Kind of assay: Spatial delayed response (SDR) task in the nonhuman primate. It counts as in vivo, rhesus monkeys. Particulars: ketamine 0.7-1.7 mg/kg i.m.; baseline 70.63 ± 1.75%. An excerpt: This study was designed to test the hypothesis that PF-6142 would provide significant protection versus the ketamine-induced working memory deficits in nonhuman primates.
Rhesus monkeys were trained to stability on a variable SDR task in a sound-attenuated Wisconsin General Testing Apparatus ([Roberts et al., 2010]). Briefly, subjects observe while the investigator baiting one of two to seven wells with a highly preferred food reward and then covers all the wells with identical square plaques. An opaque screen is then lowered for one of five variable delays, which are pseudorandomized across trials within a session. Thus, delays are defined as 0–4 N, where “N” is a value that is animal dependent and ranges from 1 to 10 s depending upon the difficulty level of the task at which an animal reaches the criterion of stable performance. At the end of the delay period, the opaque screen is raised, and the animal must select the well that had been baited to obtain a reward. Each test session consists of 20 trials wherein both the baited well and delay length are pseudorandomized across trials. Before study initiation, all subjects were required to reach stability over a period of 10 consecutive test sessions, where stability was defined as an average of 65–75% correct. Stability was attained by varying the number of wells and the delay value for each animal. Subjects were originally trained on a two-well board with an N value of 1. […] Once stability was attained for a given number of wells and N value, that combination was kept constant throughout the course of the study ([Roberts et al., 2010]). The range of stable performance for the 10 subjects was two to five wells and an N value of 1–7 s (median, four-well testing board, N = 5 s). Data were transformed using logarithmic function [log(x+5)] to improve normality and analyzed using ANOVA.
Subjects received pretreatment with vehicle (sterile saline solution) or PF-6142 (0.0015, 0.015, 0.15 mg/kg, s.c.) 4 h before cognitive testing. They then received an intramuscular injection of either vehicle (sterile saline) or ketamine (0.7–1.7 mg/kg; Fort Dodge Co.) 0.25 h before cognitive testing. […] Thus, for the present study, one monkey received 0.7 mg/kg, seven monkeys received 1.0 mg/kg, and two monkeys received 1.7 mg/kg of ketamine. The vehicle/PF-6142 and vehicle/ketamine treatments were assigned using a randomized Latin square design with a total of eight conditions. Except for the vehicle/vehicle condition, there was a minimum 2-week washout period between all acute challenges during which time animals were required to “restabilize” to baseline performance levels, which was defined as at least three consecutive testing sessions wherein cognitive performance ranged between 65% and 75% correct.

Assay [2] has the same test system. Kind of assay: Ketamine-disrupted radial arm maze (RAM). Particulars: ketamine 10 mg/kg s.c. It counts as in vivo, rat. An excerpt:
Two cohorts of adult male Long-Evans rats (N=30 each) were trained in a spatial working memory task on an eight-arm RAM, (Pathfinder Maze System, Lafayette Instrument Co., Lafayette, IN), using a procedure adapted from [Ward et al. (1990)] and described in detail in [Strick et al. (2011)]. Briefly, rats were food-restricted to provide motivation to perform the RAM task. The task requires that the animals enter each arm to retrieve a reinforcement food pellets, using spatial cues in the room to remember which arms of the maze they have previously entered. Rats were individually placed on the maze and allowed to navigate until all eight arms were entered and the pellets were consumed or until 30 choices were made, or until 5 min had elapsed. Entry into an arm previously entered was counted as an error. […] Training continued until all animals had reached the training criterion, defined as two or fewer errors on two consecutive days. […] Performance on the maze was evaluated 30 min later by an observer that was blinded to treatments.
The R 3.0.1 statistical software was used to compare the error rate data. The effects of treatment and the interaction on the error rate were assessed using a one-way mixed model ANOVA using generalized least squares method from lme4 library. […]

The structures appear in SMILES notation. Where a name gives a salt, the structure may show the parent alone.

As to `CNC1(c2ccccc2Cl)CCCCC1=O` (centres unmarked) [ketamine, ketamine hydrochloride, reference compound], the “percent correct on the SDR task” value in assay [1] is 28.75 ± 2.45%. In addition, the “error rate (errors/choices) in RAM” value in assay [2] is “robust increase in error rate”.

Source of the values: publication PMC7358525, “Characterization of PF-6142, a Novel, Non-Catecholamine Dopamine Receptor D1 Agonist, in Murine and Nonhuman Primate Models of Dopaminergic Activation” (Frontiers in Pharmacology, 2020).
